In ChEMBL document CHEMBL3507680, “University of Dundee, Gates Library screen for HepG2 cell viability”:

Test: Human HepG2 cell viability assay in 384 well format
Type: toxicity, cell-based
Parameters: dose 125 nL, time 70.5 hour; concentration not given beside the values
Settings: HepG2 cells, read-out: Inhibition

SMILES | cytotoxicity at 70.5 h [%]
CSCCC(C)NC(=O)N(C)Cc1cc(Cl)cn1C (configuration not stated) | -10.9
COc1cc(N2C[C@@H](C)[C@](O)(C3CC3)C2)ncn1 | 5.18
CCc1ccc(CNc2cc(-c3ccoc3C)nn2CCO)o1 | -18.9
CN(C)Cc1ccnc(C2CCCN2Cc2cccc(F)c2F)n1 (configuration not stated) | -2.17
Cc1cc(NCCC(=O)NC2CCCCC2)nc(-c2ccncc2)n1 | 24.9
Cc1cc(Cl)ccc1S(=O)(=O)NCC(C)N1CCN(C)CC1 (configuration not stated) | -0.894
CC(C)(C(=O)NCC(=O)NCc1ccccc1)c1ccccc1F | 3.35
N#Cc1cc(C#N)c(SCCC(=O)Nc2ccc(F)cc2)nc1N | -12.6
Cn1cccc1C1CCCN1C(=O)NCCCn1cccn1 (configuration not stated) | -7.92
CCCc1noc(CN2CCN(CCO)CC2)n1 | -1.1
CCCS(=O)(=O)N1Cc2ccnn2CC(c2nc(C)no2)C1 (configuration not stated) | -4.93
CCN(C(=O)C(C)S(=O)(=O)Cc1nc(C)no1)c1ccccc1 (configuration not stated) | -96.7
Cc1ccsc1-c1nc(CN(C)Cc2cc[nH]n2)c(C)o1 | 12.8
CCC(CC)C(=O)NCC1(NC(C)c2ccccc2)CCOCC1 (configuration not stated) | 16.6
COC(=O)CCNC(=O)c1coc(COc2ccc(F)cc2)n1 | -5.99
O=C(NCc1cccc(F)c1)NC1CCCN(c2ncccn2)C1 (configuration not stated) | -9.75
O=C1CO[C@H](c2ccc(NS(=O)(=O)Cc3ccccc3)cc2)[C@@H](CO)N1 | 12
CC(C)CN1CCC2(CCN(Cc3nccs3)CC2)C1=O | 0.492
Cc1cc(C)c2nc(CN3CCC(N4CCOC4=O)CC3)cc(O)c2c1 | 2.37

SMILES | cytotoxicity at 70.5 h [%]
O=C(c1ccc[nH]1)N1CCc2nnc(Cn3cccc3)n2CC1 | -7.68
Cc1ncccc1CNCC1CCN(CC(C)O)CC1 (configuration not stated) | -4.39
Fc1ccccc1Sc1ccccc1CNC1=NCCN1 | -0.773
COc1cc2nc(C)n(CC(=O)NCCO)c(=O)c2cc1OC | -8.13
CCC[C@H]1CN(c2nccc(OC)n2)C[C@@H]1NS(=O)(=O)N(C)C | 0.969
CN(C)[C@@H]1CCN(C(=O)c2ccco2)[C@H]1Cc1cnn(C)c1 | -12.7
O=C(NCCc1cnccn1)c1cccc(S(=O)(=O)NC2CCOC2)c1 (configuration not stated) | -1.15
CC(C)N1[C@H](Cn2cccn2)C[C@@H]2CN(C3CCOCC3)CC[C@@H]21 | -1.14
CCCn1cnnc1CN(C)C(=O)CCC(=O)Nc1cc(C)ccc1F | -6.48
O=C(NCCNc1cncc(Br)c1)c1ccc(O)cc1 | -8.4
CCc1nccn1C1CCCN(C(=O)c2ccn(C)c(=O)c2)C1 (configuration not stated) | -0.0555
CC(C)CNC(=O)c1nn(C)c(NC(=O)Cc2ccccc2)c1F | -9.39
CNc1nc(N2CCN(CC=C(C)C)C(CCO)C2)nc2c1CCC2 (configuration not stated) | 6.77
CC(C)c1ocnc1C(=O)N1CCC2(CC1)OCCO2 | -8.01
O=C(c1cocn1)N1CC[C@H]2OCC[C@@]2(COc2ncccc2F)C1 | -15.1
Cc1ccc(CN2CC[C@H]3[C@H]2CC(=O)N3c2ccsc2)o1 | 5.86
CN(Cc1ccccn1)C1CC2(CCN(Cc3cccnc3)CC2)C1 | 5.08
CCOc1ccc(C#N)cc1NCC(=O)Nc1cc(C)no1 | -14.1
CC(Cn1ccnc1)NC(=O)C1(c2ccc3c(c2)OCCO3)CCCC1 (configuration not stated) | 14.5

SMILES | cytotoxicity at 70.5 h [%]
COc1ccccc1S(=O)(=O)CCOC(C)C | -3.27
CN(C)CCOCc1cncc2c1CCN(Cc1ccccn1)C2 | -10.9
Cc1noc(-c2ccnc(N3CCCN(C4CCOCC4)CC3)c2)n1 | -3.75
COCCNC(=O)[C@H]1CN(Cc2csc(C)n2)C[C@H]2OCC[C@@H]12 | -3.29
FC(F)(F)c1ccc2nc([C@H]3CCN(C4CCCCC4)C3)[nH]c2c1 | 5.15
CC(C)c1noc(CN2CCCN(Cc3cccs3)CC2)n1 | -25.6
CCc1c(C)nn(CCNC(=O)c2csc(C)n2)c1C | -6.58
Cc1cc(-c2cnc(N3CCNC(=O)C3)nc2-c2sccc2C)on1 | -6.64
CC(C)N1CC(C(=O)NCc2ccnc(-n3cccn3)c2)CC1=O (configuration not stated) | -26.8
CC(C)C(C)(C#N)NC(=O)CN1CCC(c2ccnn2CCO)CC1 (configuration not stated) | -3.64
CN(CC(=O)NC(Cc1ccsc1)c1cccnc1)Cc1cccnc1 (configuration not stated) | 19.4
c1ccc(Cn2cccn2)c(CNCc2cnc(N3CCCC3)nc2)c1 | -13.6
COC(=O)c1ccc(-c2noc(CN(CCO)Cc3cccs3)n2)cc1 | -10.2
Cc1cnc2c(S(=O)(=O)NCC3CCOC3)cccc2c1 (configuration not stated) | -10.2
Cc1cc(N(C)C)nc(C2(C)CCCN2C(=O)c2cnccn2)n1 (configuration not stated) | -21.4
CCn1c(SCC(=O)N2CCOCC2)nc2cc(C)[nH]c2c1=O | 0.779
CN(Cc1noc(C2CC2)n1)C1CCN(CCc2cccs2)C1 (configuration not stated) | -2.4
CCNC(=O)NC(=O)CNC1(c2noc(C)n2)CCCC1 | 16.6
Cc1nc(COC[C@@]23CCC[C@@H]2CN(Cc2cnn(C)c2)C3)cs1 | -5
